Test system: not given
Assay: not given
Settings: not given

SMILES | melting point [°C]
Nc1c(S(=O)(=O)[O-])cc(Nc2ccc(O)cc2)c2c1C(=O)c1ccccc1C2=O.[Na+] | > 300
Nc1c(S(=O)(=O)[O-])cc(Nc2cccc(C(=O)O)c2)c2c1C(=O)c1ccccc1C2=O.[Na+] [Example 3, Sodium 1-amino-4-(3-carboxyphenylamino)-9,10-dioxo-9,10-dihydroanthracene 2-sulfonate] | > 300
Nc1c(S(=O)(=O)[O-])cc(Nc2ccccc2C(=O)O)c2c1C(=O)c1ccccc1C2=O.[Na+] | > 300
Nc1cc(Nc2cc(S(=O)(=O)[O-])c(N)c3c2C(=O)c2ccccc2C3=O)cc(C(=O)O)c1.[Na+] | > 300
Nc1c(S(=O)(=O)[O-])cc(Nc2ccc(S(=O)(=O)[O-])cc2)c2c1C(=O)c1ccccc1C2=O.[Na+].[Na+] | > 300
Nc1c(S(=O)(=O)[O-])cc(Nc2ccc(CC(=O)O)cc2)c2c1C(=O)c1ccccc1C2=O.[Na+] [Example 15, Sodium 1-amino-4-(4-carboxymethylphenylamino)-9,10-dioxo-9,10-dihydro-anthracene 2-sulfonate] | > 300
COc1ccc(Nc2cc(S(=O)(=O)[O-])c(N)c3c2C(=O)c2ccccc2C3=O)cc1.[Na+] [Example 19, Sodium 1-amino-4-(4-methoxyphenylamino)-9,10-dioxo-9,10-dihydroanthracene 2-sulfonate] | > 300
Nc1ccccc1Nc1cc(S(=O)(=O)[O-])c(N)c2c1C(=O)c1ccccc1C2=O.[Na+] [Example 5, Sodium 1-amino-4-(2-aminophenylamino)-9,10-dioxo-9,10-dihydroanthracene 2-sulfonate] | > 300
Nc1cccc(Nc2cc(S(=O)(=O)[O-])c(N)c3c2C(=O)c2ccccc2C3=O)c1.[Na+] | > 300
Nc1c(S(=O)(=O)[O-])cc(Nc2ccccc2O)c2c1C(=O)c1ccccc1C2=O.[Na+] | > 300
Nc1c(S(=O)(=O)[O-])cc(Nc2ccc(F)cc2)c2c1C(=O)c1ccccc1C2=O.[Na+] [Example 20, Sodium 1-amino-4-(4-fluorophenylamino)-9,10-dioxo-9,10-dihydroanthracene 2-sulfonate] | > 300
Cc1cc(C)cc(Nc2cc(S(=O)(=O)[O-])c(N)c3c2C(=O)c2ccccc2C3=O)c1.[Na+] [Example 22, Sodium 1-amino-4-(3,5-dimethylphenylamino)-9,10-dioxo-9,10-dihydroanthracene 2-sulfonate] | > 300
Cc1c(N)cccc1Nc1cc(S(=O)(=O)[O-])c(N)c2c1C(=O)c1ccccc1C2=O.[Na+] [Example 24, Sodium 1-amino-4-(3-amino-2-methylphenylamino)-9,10-dioxo-9,10-dihydroanthracene 2-sulfonate] | > 300
Nc1c(S(=O)(=O)[O-])cc(Nc2ccccc2S(=O)(=O)[O-])c2c1C(=O)c1ccccc1C2=O.[Na+].[Na+] [Example 26, Disodium 1-amino-4-(2-sulfophenylamino)-9,10-dioxo-9,10-dihydroanthracene 2-sulfonate] | > 300
Nc1c(S(=O)(=O)[O-])cc(Nc2cccc(Br)c2)c2c1C(=O)c1ccccc1C2=O.[Na+] [Example 21, Sodium 1-amino-4-(3-bromophenylamino)-9,10-dioxo-9,10-dihydroanthracene 2-sulfonate] | > 300
Nc1ccc(Nc2cc(S(=O)(=O)[O-])c(N)c3c2C(=O)c2ccccc2C3=O)cc1.[Na+] | > 300
Nc1c(S(=O)(=O)[O-])cc(Nc2ccc(C(=O)O)cc2)c2c1C(=O)c1ccccc1C2=O.[Na+] [Example 4, Sodium 1-amino-4-(4-carboxyphenylamino)-9,10-dioxo-9,10-dihydroanthracene 2-sulfonate] | > 300
Nc1c(S(=O)(=O)[O-])cc(Nc2ccc(O)c(C(=O)O)c2)c2c1C(=O)c1ccccc1C2=O.[Na+] [Example 25, Sodium 1-amino-4-(3-carboxy-4-hydroxyphenylamino)-9,10-dioxo-9,10-dihydroanthracene 2-sulfonate] | > 300
Nc1c(S(=O)(=O)[O-])cc(Nc2cc(Cl)ccc2C(=O)O)c2c1C(=O)c1ccccc1C2=O.[Na+] | > 300
COc1cccc(Nc2cc(S(=O)(=O)[O-])c(N)c3c2C(=O)c2ccccc2C3=O)c1.[Na+] [Example 18, Sodium 1-amino-4-(3-methoxyphenylamino)-9,10-dioxo-9,10-dihydroanthracene 2-sulfonate] | > 300

Biological target: T1, human platelet P2Y12 receptors (Homo sapiens, UniProt Q9H244)
T1 construct: Membranes were prepared from human outdated platelets from the blood bank; from tissue; host or cells: human platelets (University of Bonn blood bank), membrane preparation
Assay: Radioligand binding assay with [3H]PSB-0413 at human platelet membranes
Settings: not given
Experimental: Membranes were prepared from human outdated platelets from the blood bank. Outdated human platelets were obtained from the University of Bonn blood bank 4-5 days after donation. Platelet rich plasma was washed by centrifugation (10 min at 1000 g) in a buffer consisting of 50 mM Tris-HCl, pH 7.4, 5 mM EDTA and 150 mM NaCl. The supernatant was centrifuged twice (48400 g for 60 min) and the resultant platelet pellet were resuspended in 5 mM Tris-HCl (pH 7.4) containing 5 mM EDTA. The platelets were homogenized by a homogenizer. The final suspension was stored frozen as multiple aliquots at −80° C. until needed. Protein concentrations were determined by the method of Lowry using a Sigma Chemie protein assay kit.
Radioligand binding assays were performed using 5 nM [^3H]PSB-0413 and 100 μg of protein in Tris-HCl buffer 50 mM, pH 7.4, as previously described. (El-Tayeb, A., Griessmeier, K. J, Müller, C. E. Bioorg. Med. Chem. Lett. 2005, 15, 5450-52; Atzler, K. Doctoral Thesis, University of Bonn, 2006). Competition by 10 μM of test compound was initially determined. The mixture was incubated for 1 h at rt followed by filtration through GF/B filters. Nonspecific binding was determined with 1 mM ADP or 250 μM RB 2. […] At least three independent experiments were performed each in triplicate.
(§1) The data were analyzed using GraphPad Prism 4.0 (GraphPad Software, Inc., San Diego, Calif.).

T1 sequence (Q9H244 whole entry): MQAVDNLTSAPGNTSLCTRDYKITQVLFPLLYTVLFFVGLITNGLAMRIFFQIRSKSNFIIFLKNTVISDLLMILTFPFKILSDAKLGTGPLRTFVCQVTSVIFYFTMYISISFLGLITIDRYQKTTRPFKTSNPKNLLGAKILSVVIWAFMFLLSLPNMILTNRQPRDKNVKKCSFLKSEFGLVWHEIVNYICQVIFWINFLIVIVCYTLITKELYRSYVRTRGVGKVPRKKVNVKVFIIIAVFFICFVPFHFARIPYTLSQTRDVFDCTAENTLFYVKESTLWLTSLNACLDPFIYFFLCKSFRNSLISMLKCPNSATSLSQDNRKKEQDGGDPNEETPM

SMILES | Ki [µM]
Nc1c(S(=O)(=O)O)cc(Nc2ccc(S(=O)(=O)O)c(Nc3nc(Cl)nc(Cl)n3)c2)c2c1C(=O)c1ccccc1C2=O [Entry 31] | 17.1 ± 7.8

Same assay, conditions: human platelet membranes, 5 nM [3H]PSB-0413, 1 h at rt; mean ± SEM; read-out: hP2Y12 Receptor Ki [μM ± SEM] vs. [3H]PSB-0413

SMILES | Ki [µM]
Nc1ccc(Nc2cc(S(=O)(=O)O)c(N)c3c2C(=O)c2ccccc2C3=O)c(S(=O)(=O)O)c1 [Entry 9] | 19.7 ± 8.27
Nc1c(S(=O)(=O)O)cc(Nc2ccc(Nc3nc(O)nc(O)n3)c(S(=O)(=O)O)c2)c2c1C(=O)c1ccccc1C2=O [Entry 38] | ~10
Nc1c(S(=O)(=O)O)cc(Nc2ccc(Nc3nc(O)nc(O)n3)cc2S(=O)(=O)O)c2c1C(=O)c1ccccc1C2=O [Entry 39] | > 10
Nc1c(S(=O)(=O)O)cc(Nc2ccc(Oc3ccccc3)c(S(=O)(=O)O)c2)c2c1C(=O)c1ccccc1C2=O [Entry 22] | 0.063 ± 0.009
Nc1cccc(Nc2cc(S(=O)(=O)O)c(N)c3c2C(=O)c2ccccc2C3=O)c1 [Entry 14] | > 10
Nc1c(S(=O)(=O)O)cc(Nc2ccc(Cl)cc2C(=O)O)c2c1C(=O)c1ccccc1C2=O [Entry 10] | 12.3 ± 1.7
Nc1cc(Nc2cc(S(=O)(=O)O)c(N)c3c2C(=O)c2ccccc2C3=O)ccc1S(=O)(=O)O [Entry 4] | 2.1 ± 0.47
Nc1c(S(=O)(=O)O)cc(Nc2cc(Cl)ccc2C(=O)O)c2c1C(=O)c1ccccc1C2=O [Entry 7] | 12.2 ± 0.3
Nc1c(S(=O)(=O)O)cc(Nc2ccc(Nc3ncccn3)cc2)c2c1C(=O)c1ccccc1C2=O [Entry 36] | ~10
Nc1c(S(=O)(=O)O)cc(Nc2ccc(Nc3ccccc3)c(S(=O)(=O)O)c2)c2c1C(=O)c1ccccc1C2=O [Entry 24] | 0.0249 ± 0.0032
Cc1cc(Nc2ccc(Nc3ccccc3)c(S(=O)(=O)O)c2)c2c(c1N)C(=O)c1ccccc1C2=O [Entry 30] | 0.541
Nc1c(S(=O)(=O)O)cc(Nc2ccc(Nc3nc(Cl)nc(Cl)n3)c(S(=O)(=O)O)c2)c2c1C(=O)c1ccccc1C2=O [Entry 32] | 2.45 ± 1
Nc1c(S(=O)(=O)O)cc(Nc2cc(Nc3nc(Cl)nc(Cl)n3)cc(C(=O)O)c2)c2c1C(=O)c1ccccc1C2=O [Entry 34] | 3.76 ± 1.03
Nc1c(S(=O)(=O)O)cc(Nc2ccccc2O)c2c1C(=O)c1ccccc1C2=O [Entry 11] | ~10
Nc1c(S(=O)(=O)O)cc(Nc2ccc(Cc3ccccc3)cc2)c2c1C(=O)c1ccccc1C2=O [Entry 13] | 0.614
Nc1c(S(=O)(=O)O)cc(Nc2ccc(O)cc2)c2c1C(=O)c1ccccc1C2=O [Entry 12] | ~10
Nc1c(S(=O)(=O)O)cc(Nc2cccc(Cl)c2)c2c1C(=O)c1ccccc1C2=O [Entry 27] | 6.76 ± 2.07
Nc1c(S(=O)(=O)O)cc(Nc2ccccc2C(=O)O)c2c1C(=O)c1ccccc1C2=O [Entry 8] | 25.1 ± 7
Nc1c(S(=O)(=O)O)cc(Nc2ccc(Sc3ccccc3)cc2)c2c1C(=O)c1ccccc1C2=O [Entry 19] | 0.884 ± 0.525
Nc1cc(Nc2cc(S(=O)(=O)O)c(N)c3c2C(=O)c2ccccc2C3=O)cc(C(=O)O)c1 [Entry 6] | 7.07 ± 1.7
Nc1c(S(=O)(=O)O)cc(Nc2ccc(S(=O)(=O)O)cc2)c2c1C(=O)c1ccccc1C2=O [Entry 2] | 3.13 ± 0.39
Nc1ccc(Nc2cc(S(=O)(=O)O)c(N)c3c2C(=O)c2ccccc2C3=O)cc1S(=O)(=O)O [Entry 5] | 2.39 ± 0.65
Nc1c(S(=O)(=O)O)cc(Nc2cccc(S(=O)(=O)O)c2)c2c1C(=O)c1ccccc1C2=O [Entry 1] | 3.81 ± 1.08
Nc1c(S(=O)(=O)O)cc(Nc2ccc(Nc3nc(Cl)nc(Cl)n3)cc2)c2c1C(=O)c1ccccc1C2=O [Entry 35] | 1.9 ± 0.24

Biological target: T2, hP2Y2 Receptor (Homo sapiens, UniProt P41231)
T2 construct: expressed in transfected cells; host or cells: human astrocytoma cells
Assay: Inhibition of agonist-induced calcium mobilization, recombinant receptor in human astrocytoma cells
Type: cell-based
Settings: mean ± SEM
Experimental: (§2) Inhibition of agonist-induced calcium mobilization was determined as previously described (Kaulich M. et al, Drug Dev. Res. 2003, 59, 72-81) using NG108-15 cells for the mouse P2Y2 receptor, or human recombinant P2Y receptors stably expressed in human astrocytoma cells (El-Tayeb, A. et al., J. Med. Chem. 2006, 49, 7076-87).
as §1

T2 sequence (P41231 whole entry): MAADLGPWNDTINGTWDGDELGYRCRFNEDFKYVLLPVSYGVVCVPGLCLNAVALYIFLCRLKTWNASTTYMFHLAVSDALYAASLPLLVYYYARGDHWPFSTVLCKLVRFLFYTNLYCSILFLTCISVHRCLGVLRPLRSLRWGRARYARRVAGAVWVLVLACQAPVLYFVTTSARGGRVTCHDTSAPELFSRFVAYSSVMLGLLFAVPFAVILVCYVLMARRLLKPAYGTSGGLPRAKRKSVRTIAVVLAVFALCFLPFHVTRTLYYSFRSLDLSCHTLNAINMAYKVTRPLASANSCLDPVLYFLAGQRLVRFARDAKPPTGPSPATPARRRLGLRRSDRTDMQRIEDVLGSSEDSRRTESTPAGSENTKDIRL

SMILES | IC50 [µM]
Nc1c(S(=O)(=O)O)cc(Nc2cccc([N+](=O)[O-])c2)c2c1C(=O)c1ccccc1C2=O [Entry 28] | 7.52 ± 0.82
Nc1c(S(=O)(=O)O)cc(Nc2cccc(Cl)c2)c2c1C(=O)c1ccccc1C2=O [Entry 27] | 24.5 ± 10.4

Biological target: hP2Y4 Receptor (Homo sapiens, UniProt P51582)
Assay: as above
Type: cell-based
Settings: mean ± SEM
Experimental: as §2, §1

Sequence of hP2Y4 Receptor (P51582 whole entry): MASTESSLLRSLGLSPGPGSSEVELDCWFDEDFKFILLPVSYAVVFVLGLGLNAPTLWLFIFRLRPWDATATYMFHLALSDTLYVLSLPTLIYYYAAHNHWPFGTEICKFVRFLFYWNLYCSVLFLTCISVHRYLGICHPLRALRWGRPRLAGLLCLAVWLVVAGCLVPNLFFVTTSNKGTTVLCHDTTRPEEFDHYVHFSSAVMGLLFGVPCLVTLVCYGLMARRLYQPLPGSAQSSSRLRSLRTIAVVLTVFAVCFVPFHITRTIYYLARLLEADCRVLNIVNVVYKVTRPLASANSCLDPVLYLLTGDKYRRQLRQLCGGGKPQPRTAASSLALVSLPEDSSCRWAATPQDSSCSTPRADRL

SMILES | IC50 [µM]
Nc1c(S(=O)(=O)O)cc(Nc2cccc(Cl)c2)c2c1C(=O)c1ccccc1C2=O [Entry 27] | > 3
Nc1ccc(Nc2cc(S(=O)(=O)O)c(N)c3c2C(=O)c2ccccc2C3=O)cc1S(=O)(=O)O [Entry 5] | 11 ± 3
Nc1c(S(=O)(=O)O)cc(Nc2cccc(S(=O)(=O)O)c2)c2c1C(=O)c1ccccc1C2=O [Entry 1] | 18.5 ± 2.5
COc1ccc(CCNc2cc(S(=O)(=O)O)c(N)c3c2C(=O)c2ccccc2C3=O)cc1OC [Entry 21] | > 30

Biological target: rP2Y6 Receptor (Rattus norvegicus, UniProt Q63371)
Assay: as above
Type: cell-based
Settings: mean ± SEM
Experimental: as §2, §1

Sequence of rP2Y6 Receptor (Q63371 whole entry): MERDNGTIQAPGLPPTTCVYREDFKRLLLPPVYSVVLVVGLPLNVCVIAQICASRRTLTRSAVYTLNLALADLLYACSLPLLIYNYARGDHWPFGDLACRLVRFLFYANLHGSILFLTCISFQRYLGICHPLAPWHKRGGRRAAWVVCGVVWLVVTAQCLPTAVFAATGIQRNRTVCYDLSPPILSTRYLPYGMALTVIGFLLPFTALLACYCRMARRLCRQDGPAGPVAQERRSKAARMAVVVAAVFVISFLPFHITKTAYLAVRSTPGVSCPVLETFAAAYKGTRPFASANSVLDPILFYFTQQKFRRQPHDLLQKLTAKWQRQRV

SMILES | IC50 [µM]
Nc1c(S(=O)(=O)O)cc(Nc2cccc(Cl)c2)c2c1C(=O)c1ccccc1C2=O [Entry 27] | > 100
Nc1ccc(Nc2cc(S(=O)(=O)O)c(N)c3c2C(=O)c2ccccc2C3=O)cc1S(=O)(=O)O [Entry 5] | 24.3 ± 3.4
Nc1c(S(=O)(=O)O)cc(Nc2cccc(S(=O)(=O)O)c2)c2c1C(=O)c1ccccc1C2=O [Entry 1] | ~100
COc1ccc(CCNc2cc(S(=O)(=O)O)c(N)c3c2C(=O)c2ccccc2C3=O)cc1OC [Entry 21] | > 100

— patent US20100210654A1, “NOVEL P2Y12 RECEPTOR ANTAGONISTS” (RHEINISCHE FRIEDRICH-WILHELMS UNIVERSITÄT BONN, priority 2007, published 2010)
